According to patent US20260235580A1, “P21-ACTIVATED KINASE 4 INHIBITION AND E-CADHERIN […] AND SCREENING METHOD THEREFOR” (priority 2023, published 2026):
Peptide text beside a SMILES is read from it. * marks the point of attachment. Cbz = O=C(OCc1ccccc1)*

Assays:
Format in all cases: cell-based
E-cadherin [1] = assay: MG132 treatment of PANC-1 cells stably expressing shCTRL or shPAK4, western blot for E-cadherin (normalized by Vinculin); details: specific concentrations of MG132 for 24 hours
Experimental: (§1) Experiment Method: PANC-1 cells were treated with 20 μg/mL cycloheximide (CHX), harvested at designated time points, and detected by western blot for E-cadherin, ZEB1, and Vinculin antibodies (left side of FIG. 5A). Quantitative evaluation of E-cadherin and ZEB1 protein levels was performed (normalized by Vinculin, right side of FIG. 5A). SU.86.86 and PANC-1 cells were cultured overnight in 1% P/S/10% FBS/DMEM, then converted to DMEM without Ca2+, and cultured for a specific time. E-cadherin, ZEB1, and Vinculin were detected by western blot (top side of FIG. 5B). E-cadherin and ZEB1 protein levels were quantitatively assessed (normalized by Vinculin, bottom side of FIG. 5B). PANC-1 cells stably expressing shCTRL or shPAK4 were treated with specific concentrations of MG132 for 24 hours and then detected by western blot for E-cadherin, ZEB1, and Vinculin antibodies (left side of FIG. 5C). E-cadherin and ZEB1 protein levels were quantitatively assessed (normalized by Vinculin, right side of FIG. 5C), After PANC-1 cells stably expressing shCTRL or shPAK4 were cultured in a serum-free medium for a certain period of time, activated Cdc42 and Rac1 interacting with GST-PBD-agarose were harvested from whole cell proteins. The activity of Cdc42 and Rac1 was detected by western blot (FIG. 5D). […]

E-cadherin [2] = assay: Cycloheximide treatment of PANC-1 shCTRL/shPAK4 cells, western blot for E-cadherin (normalized by Vinculin); details: 20 μg/mL cycloheximide
Experimental: as §1

ZEB1 = assay: Cycloheximide treatment of PANC-1 shCTRL/shPAK4 cells, western blot for ZEB1 (normalized by Vinculin); details: 20 μg/mL cycloheximide
Experimental: as §1

[3] = PANC-1 PAK4 knockdown (shPAK4) cells
[4] = PANC-1 shCTRL cells, harvested at designated time points

SMILES	amount of protein of E-cadherin (E-cadherin [1]; [3])	amount of protein of E-cadherin (E-cadherin [1]; PANC-1 shCTRL cells)	E-cadherin expression (E-cadherin [2]; [3])	E-cadherin production (E-cadherin [2]; [4])	ZEB1 expression (ZEB1; [3])	ZEB1 production (ZEB1; [4])
CC(C)C[C@@H](C=O)NC(=O)[C@H](CC(C)C)NC(=O)[C@H](CC(C)C)NC(=O)OCc1ccccc1 [MG132] (Cbz-Leu-Leu-Leu-aldehyde)	such a pattern was not observed	decreased in a concentration-dependent manner	–	–	–	–
C[C@@H]1C[C@@H]([C@H](O)CC2CC(=O)NC(=O)C2)C(=O)[C@@H](C)C1 [cyclohexamide, cycloheximide]	–	–	remained the same	inhibited	significantly reduced	inhibited
